# US11932874B2, “Method for culturing mesenchymal stem cells using gamma-irradiated serum” (R Bio CO., Ltd., priority 2018, dated 2024)
# Columns and labels:
# Assay type in all cases: cell-based
# [1] = system: human adipose tissue-derived stem cells; test: Differentiation into adipocytes, oil red O staining (Example 7); details: 30 KGy gamma radiation, post-treated with 1% vitamin C, passage 4
# Description: (§1) For the positive control group and vitamin C post-treatment test group of Example 6, the purity and characteristics of the stem cells at passage 4 were examined. The purity of the stem cells was examined by analyzing the expression of CD markers using FACS (FIG. 12 and Table 10), and the characteristics of the stem cells were examined by analyzing differentiation into adipocytes, osteocytes and chondrocytes (FIGS. 13 to 15). Differentiation into adipocytes was analyzed by oil red 0 staining according to the Sigma-Aldrich protocol, and differentiation into osteocytes was analyzed by alizarin red S staining according to the Lifeline Cell Tech's protocol, and differentiation into chondrocytes was analyzed by TSP2 ELISA.
# [2] = system: human adipose tissue-derived stem cells; test: Differentiation into osteocytes, alizarin red S staining (Example 7); details: 30 KGy gamma radiation, post-treated with 1% vitamin C, passage 4
# Description: as §1
# [3] = system: human adipose tissue-derived stem cells; test: Adhesion and proliferation rate of stem cells cultured in 30 kGy gamma-irradiated FBS over passages (Example 6); details: 30 kGy FBS
# Description: Fetal bovine serum (FBS) was irradiated with 30 kGy of gamma radiation, thereby preparing gamma-irradiated FBS. The gamma-irradiated FBS was added to AMSC+ culture medium (R-Bio Co., Ltd.) at a concentration of 5%, and 1% vitamin C was added to the culture medium, thereby preparing a medium (a vitamin C post-treatment group). Then, the human adipose tissue-derived stem cells at passage 1, isolated in Example 1, were thawed and inoculated into T25 flasks at a concentration of 0.7×10^3 cells/T25 flask, and the inoculated cells were cultured with AMSC+ culture medium (R-Bio Co., Ltd.) containing the prepared gamma-irradiated FBS at a concentration of 5% in a CO2 incubator at 37° C. for 2 days. After 2 days of culture, the medium was removed and replaced with AMSC+ culture medium containing 5% normal FBS (a positive control group), or medium obtained by adding vitamin C to AMSC+ culture medium containing 5% gamma-irradiated FBS (a vitamin C post-treatment test group). Vitamin C was added to the culture medium at a concentration of 1%. […] The stem cell adhesion shown in FIGS. 11A-11C was examined with a Leica microscope, and the cell number, cell size and viability shown in Tables 6 to 9 were examined with Luna™ Automated cell counter L10001 (Logos Biosystems).
# [4] = system: human adipose tissue-derived stem cells; test: Viability of stem cells cultured in 30 kGy gamma-irradiated FBS (Example 5): cell number, size, viability, doubling time; details: 30 kGy FBS, 4 days; for Cell No. / Cell size / DT / Viability: average (n = 3)
# Description: Fetal bovine serum (FBS) was irradiated with 30 kGy of gamma radiation, thereby preparing gamma-irradiated FBS. Vitamin C (ascorbic acid; L-Ascorbic Acid 2-phosphate) was added to the FBS which was then irradiated with 30 kGy of gamma irradiation, thereby preparing gamma-irradiated FBS pretreated with vitamin C. The vitamin C was added to the FBS at a concentration of 1%. Then, the human adipose tissue-derived stem cells at passage 3, isolated in Example 1, were thawed and inoculated into T75 flasks at a concentration of 0.5×10^6 cells/T75 flask, and the inoculated cells were cultured with AMSC+ culture medium (R-Bio Co., Ltd.) containing the prepared gamma-irradiated FBS or gamma-irradiated FBS pretreated with vitamin C at a concentration of 5% in a CO2 incubator at 37° C. for 2 days. After 2 days of culture, the medium was removed and replaced with AMSC+ culture medium containing 5% gamma-irradiated FBS (a negative control group), medium obtained by adding vitamin C to AMSC+ culture medium containing 5% gamma-irradiated FBS (a vitamin C post-treatment test group), or medium obtained by adding vitamin C to AMSC+ culture medium containing 5% gamma-irradiated FBS pretreated with vitamin C (a vitamin C pre- and post-treatment test group) (Table 4). Vitamin C was added to the culture medium or FBS at a concentration of 1%. After 4 days of culture (FIG. 6), the cell proliferation rate, cell number, viability and doubling time of the stem cells were examined. A positive control group was also prepared as described in Example 2 above. [table]
# [5] = system: human adipose tissue-derived stem cells; test: Expression of stem cell CD markers by FACS (Example 7); parameters: CD73 expression (FACS) / CD31 expression (FACS) / CD34 expression (FACS) / CD45 expression (FACS): unit not given here; details: for CD31 expression (FACS) / CD34 expression (FACS) / CD45 expression (FACS) / CD73 expression (FACS) / CD90 expression (FACS): 30 kGy FBS; for CD90 expression (FACS): in % (unit assumed)
# Description: as §1
# [6] = system: human adipose tissue-derived stem cells; test: Differentiation into chondrocytes, TSP2 ELISA (Example 7); details: 30 KGy gamma radiation, post-treated with 1% vitamin C, passage 4
# Description: as §1
# [7] = Stem cells #1 P1, 1% vitamin C post-treatment
# [8] = Stem cells #1 P2, 1% vitamin C post-treatment
# [9] = Stem cells #1 P3, 1% vitamin C post-treatment
# [10] = Stem cells #1 P4, 1% vitamin C post-treatment
# [11] = Stem cells #2 P1, 1% vitamin C post-treatment
# [12] = Stem cells #2 P2, 1% vitamin C post-treatment
# [13] = Stem cells #2 P3, 1% vitamin C post-treatment
# [14] = Stem cells #2 P4, 1% vitamin C post-treatment
# [15] = Stem cells #3 P1, 1% vitamin C post-treatment
# [16] = Stem cells #3 P2, 1% vitamin C post-treatment
# [17] = Stem cells #3 P3, 1% vitamin C post-treatment
# [18] = Stem cells #3 P4, 1% vitamin C post-treatment
# [19] = 1% Vit. C pre-treatment + 1% Vit. C post-treatment
smiles,measurement,setting,value
"O=C1O[C@H]([C@@H](O)CO)C(O)=C1OP(=O)(O)O [AA2P, L-Ascorbic Acid 2-phosphate]",differentiation into adipocytes versus positive control group,[1],did not differ from those of the positive control group
same,differentiation into osteocytes versus positive control group,[2],did not differ from those of the positive control group
same,"adhesion, cell number, cell size and viability versus positive control group","[3]; 1% vitamin C post-treatment, stem cells at passages 2 to 4",did not differ from those of the positive control group
same,Cell number,[3]; [7],2.4 × 10^7 cells
same,Cell size,[3]; [7],19.1 μm
same,Viability,[3]; [7],84.4%
same,Cell number,[3]; [8],1.6 × 10^7 cells
same,Cell size,[3]; [8],19.5 μm
same,Viability,[3]; [8],83%
same,Cell number,[3]; [9],2.0 × 10^7 cells
same,Cell size,[3]; [9],19.2 μm
same,Viability,[3]; [9],88.7%
same,Cell number,[3]; [10],3.3 × 10^8 cells
same,Cell size,[3]; [10],20 μm
same,Viability,[3]; [10],87.5%
same,Cell number,[3]; [11],1.8 × 10^7 cells
same,Cell size,[3]; [11],20 μm
same,Viability,[3]; [11],89.6%
same,Cell number,[3]; [12],1.8 × 10^7 cells
same,Cell size,[3]; [12],19.3 μm
same,Viability,[3]; [12],95.5%
same,Cell number,[3]; [13],1.2 × 10^7 cells
same,Cell size,[3]; [13],19.7 μm
same,Viability,[3]; [13],88.9%
same,Cell number,[3]; [14],1.5 × 10^8 cells
same,Cell size,[3]; [14],18.8 μm
same,Viability,[3]; [14],95.6%
same,Cell number,[3]; [15],2.3 × 10^7 cells
same,Cell size,[3]; [15],19.6 μm
same,Viability,[3]; [15],87.1%
same,Cell number,[3]; [16],1.4 × 10^7 cells
same,Cell size,[3]; [16],18 μm
same,Viability,[3]; [16],82%
same,Cell number,[3]; [17],1.4 × 10^7 cells
same,Cell size,[3]; [17],19.3 μm
same,Viability,[3]; [17],88.2%
same,Cell number,[3]; [18],2.1 × 10^8 cells
same,Cell size,[3]; [18],17.8 μm
same,Viability,[3]; [18],88.0%
same,Cell No.,[4]; 1% Vit. C post-treatment,4.3 ×10^6 cells
same,Cell size,[4]; 1% Vit. C post-treatment,19.3 μm
same,DT,[4]; 1% Vit. C post-treatment,29.9 h
same,Viability,[4]; 1% Vit. C post-treatment,86.9%
same,Cell No.,[4]; [19],5.7 ×10^6 cells
same,Cell size,[4]; [19],20.3 μm
same,DT,[4]; [19],28.1 h
same,Viability,[4]; [19],86.5%
same,Cell No.,[4]; 1% Vit. C pre-treatment,5.8 ×10^6 cells
same,Cell size,[4]; 1% Vit. C pre-treatment,18.8 μm
same,DT,[4]; 1% Vit. C pre-treatment,27.6 h
same,Viability,[4]; 1% Vit. C pre-treatment,92.3%
same,"cell number, viability and doubling time versus positive control group",[4]; vitamin C post-treatment test group,increased to the levels of the positive control group
same,expression of CD markers versus positive control group,"[5]; 30 KGy gamma radiation, post-treated with 1% vitamin C, passage 4",did not differ from that in the positive control group
same,CD31 expression (FACS),[5]; [10],0.52
same,CD34 expression (FACS),[5]; [10],0.31
same,CD45 expression (FACS),[5]; [10],0.49
same,CD73 expression (FACS),[5]; [10],94.30
same,CD90 expression (FACS),[5]; [10],99.98
same,CD31 expression (FACS),[5]; [14],0.16
same,CD34 expression (FACS),[5]; [14],0.14
same,CD45 expression (FACS),[5]; [14],0.11
same,CD73 expression (FACS),[5]; [14],93.42
same,CD90 expression (FACS),[5]; [14],99.99
same,CD31 expression (FACS),[5]; [18],0.47
same,CD34 expression (FACS),[5]; [18],0.70
same,CD45 expression (FACS),[5]; [18],0.78
same,CD73 expression (FACS),[5]; [18],91.45
same,CD90 expression (FACS),[5]; [18],99.99
same,differentiation into chondrocytes versus positive control group,[6],did not differ from those of the positive control group
